Like-named read-outs stand apart in the source and are kept apart here.
What was measured:
NAMPT = molecular target: T1, NAMPT (Homo sapiens, UniProt P43490); experiment: Biochemical inhibition assay: NAMPT enzymatic reaction, NMN quantified by mass spectrometry; settings: read-out: Biochem IC50
T1 construct: His tag; host or cells: E. coli
Method in brief: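 Inhibition of E. coli-expressed His-tagged human NAMPT, measured as NMN formation by mass spectrometry after a 30 min room-temperature reaction containing 1 μM NAM, 100 μM PRPP and 2.5 mM ATP.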

A2780 cells = experiment: In-vitro cell proliferation assay (SRB), A2780 cells; type: cell-based; settings: Homo sapiens, A2780, 72 h, A2780 cells, 72 hours, read-out: A2780 IC50
Method in brief: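 Viable cells measured by SRB staining after 6% TCA fixation, absorbance 570 nm. Media-only background subtracted; % inhibition derived at two compound concentrations.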

T1 sequence (P43490 whole entry): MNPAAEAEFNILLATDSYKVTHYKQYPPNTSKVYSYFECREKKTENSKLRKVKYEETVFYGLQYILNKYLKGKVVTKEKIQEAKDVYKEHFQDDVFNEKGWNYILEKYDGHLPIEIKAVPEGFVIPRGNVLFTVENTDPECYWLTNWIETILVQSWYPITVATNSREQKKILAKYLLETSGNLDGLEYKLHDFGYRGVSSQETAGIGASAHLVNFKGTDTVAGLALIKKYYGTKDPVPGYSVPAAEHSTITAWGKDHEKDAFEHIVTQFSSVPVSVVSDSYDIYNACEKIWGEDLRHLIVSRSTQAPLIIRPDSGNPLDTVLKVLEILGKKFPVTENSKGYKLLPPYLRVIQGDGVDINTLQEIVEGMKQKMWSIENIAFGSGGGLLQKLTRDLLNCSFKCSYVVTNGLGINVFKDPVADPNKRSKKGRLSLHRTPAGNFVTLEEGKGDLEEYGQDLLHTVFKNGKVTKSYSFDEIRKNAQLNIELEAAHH

SMILES	IC50 (NAMPT; NAMPT enzymatic assay) [nM]	IC50 (A2780 cells; SRB) [nM]	IC50 (NAMPT; NAMPT enzymatic reaction) [nM]	IC50 (A2780 cells; SRB assay) [nM]
O=C(NCc1ccc(S(=O)(=O)c2ccc(C(F)(F)F)cc2)cc1)c1cnc2[nH]ncc2c1 [N-[(4-{[4-(trifluoromethyl)benzene]sulfonyl}phenyl)methyl]-1H-pyrazolo[3,4-b]pyridine-5-carboxamide]	19.9	19.4		
COc1ccc(S(=O)(=O)c2ccc(CNC(=O)c3cc4ccncc4s3)cc2)cc1F [N-({4-[(3-fluoro-4-methoxybenzene)sulfonyl]phenyl}methyl)thieno[2,3-c]pyridine-2-carboxamide]			5	2.5
O=C(NCc1ccc(S(=O)(=O)c2ccc(C(F)(F)F)cc2F)cc1)c1cc2ccncc2s1	20.2	42.3		
CCN(C)c1ncc(S(=O)(=O)c2ccc(CNC(=O)c3cnc4[nH]ncc4c3)cc2)s1 [N-[(4-{2-[ethyl(methyl)amino]-1,3-thiazole-5-sulfonyl}phenyl)methyl]-1H-pyrazolo[3,4-b]pyridine-5-carboxamide]	3.6	1.5		
COc1ccc(S(=O)(=O)c2ccc(CNC(=O)c3ccc4nccn4c3)cc2)c(OC)c1 [N-({4-[(2,4-dimethoxybenzene)sulfonyl]phenyl}methyl)imidazo[1,2-a]pyridine-6-carboxamide]		15.1	58.2	
CN1CCN(c2ccc(S(=O)(=O)c3ccc(CNC(=O)c4ccc5nccn5c4)cc3)cc2)CC1	1	0.2		
CCc1ccccc1S(=O)(=O)c1ccc(CNC(=O)c2ccc3nccn3c2)cc1 [N-({4-[(2-ethylbenzene)sulfonyl]phenyl}methyl)imidazo[1,2-a]pyridine-6-carboxamide]		12.9	30.2	
O=C(NCc1ccc(S(=O)(=O)c2ccccc2Cl)cc1)c1cc2ccncc2s1		6.6	2.4	
O=C(NCc1ccc(S(=O)(=O)c2ccccc2C(F)(F)F)cc1)c1ccc2nccn2c1 [N-[(4-{[2-(trifluoromethyl)benzene]sulfonyl}phenyl)methyl]imidazo[1,2-a]pyridine-6-carboxamide]	34.1	57.9		
CCCCOc1cc(F)ccc1S(=O)(=O)c1ccc(CNC(=O)c2cnc3nccn3c2)cc1		73.8	7.3	
O=C(NCc1ccc(S(=O)(=O)c2ccc(-c3ccccc3)cc2)cc1)c1cc2cc(O)ccc2[nH]1		1000 to 10000	100 to 1000	
O=C(NCc1ccc(S(=O)(=O)c2ccc(Cl)cc2)cc1)c1cc2cnccc2[nH]1 [N-({4-[(4-chlorobenzene)sulfonyl]phenyl}methyl)-1H-pyrrolo[3,2-c]pyridine-2-carboxamide]			9	25
O=C(NCc1ccc(S(=O)(=O)c2cccc3ccsc23)cc1)c1cc2ccncc2s1 [N-{[4-(1-benzothiophene-7-sulfonyl)phenyl]methyl}thieno[2,3-c]pyridine-2-carboxamide]	1.5	1.5		
COc1ccc(S(=O)(=O)c2ccc(CNC(=O)c3cnc4[nH]ncc4c3)cc2)cc1Cl		3.6	4	
COc1cccc(NS(=O)(=O)c2ccc(CNC(=O)c3cc4cnccc4[nH]3)cc2)c1C [N-({4-[(3-methoxy-2-methylphenyl)sulfamoyl]phenyl}methyl)-1H-pyrrolo[3,2-c]pyridine-2-carboxamide]			30	6
Cc1cccc(S(=O)(=O)c2ccc(CNC(=O)c3cc4ccncc4o3)cc2)c1C		8	51.6	
Cc1ccc(F)cc1S(=O)(=O)c1ccc(CNC(=O)c2ccc3nccn3c2)cc1 [N-({4-[(5-fluoro-2-methylbenzene)sulfonyl]phenyl}methyl)imidazo[1,2-a]pyridine-6-carboxamide]		22.9	12.6	
O=C(NCc1ccc(S(=O)(=O)c2cncc(N3CCCC3)c2)cc1)c1cnc2[nH]ncc2c1 [N-({4-[5-(pyrrolidin-1-yl)pyridine-3-sulfonyl]phenyl}methyl)-1H-pyrazolo[3,4-b]pyridine-5-carboxamide]	17.9	4		
Cc1cc(C)n(-c2cccc(S(=O)(=O)c3ccc(CNC(=O)c4cc5cnccc5[nH]4)cc3)c2)n1	13.2	1.6		
CCCCOc1cc(F)ccc1S(=O)(=O)c1ccc(CNC(=O)c2cc3cnccc3[nH]2)cc1		5.5	31.1	
CC(C)Oc1cccc(S(=O)(=O)c2ccc(CNC(=O)c3cnc4[nH]ncc4c3)cc2)c1	46.1	24.5		
COc1ccc(C(C)=O)cc1S(=O)(=O)c1ccc(CNC(=O)c2cnc3[nH]ncc3c2)cc1		27.5	27.7	
O=C(NCc1ccc(S(=O)(=O)N2CCCCC2)cc1)c1ccc2[nH]ncc2c1 [N-{[4-(piperidine-1-sulfonyl)phenyl]methyl}-1H-indazole-5-carboxamide]			18	16

SMILES	IC50 (NAMPT; NAMPT enzymatic assay) [nM]	IC50 (A2780 cells; SRB) [nM]	IC50 (NAMPT; NAMPT enzymatic reaction) [nM]	IC50 (A2780 cells; SRB assay) [nM]
COc1ccc(C)cc1S(=O)(=O)c1ccc(CNC(=O)c2cc3cnccc3[nH]2)cc1 [N-({4-[(2-methoxy-5-methylbenzene)sulfonyl]phenyl}methyl)-1H-pyrrolo[3,2-c]pyridine-2-carboxamide]			12	3
O=C(NCc1ccc(S(=O)(=O)c2ccc(N3CCOCC3)nc2)cc1)c1cc2cnccc2[nH]1 [N-({4-[6-(morpholin-4-yl)pyridine-3-sulfonyl]phenyl}methyl)-1H-pyrrolo[3,2-c]pyridine-2-carboxamide]	9.6	1.5		
Cc1c(F)cccc1S(=O)(=O)c1ccc(CNC(=O)c2cnc3nccn3c2)cc1		65.6	8.1	
O=C(NCc1ccc(S(=O)(=O)c2ccc(-n3cccn3)c(F)c2)cc1)c1ccc2nccn2c1 [N-[(4-{[3-fluoro-4-(1H-pyrazol-1-yl)benzene]sulfonyl}phenyl)methyl]imidazo[1,2-a]pyridine-6-carboxamide]	5.37	3.41		
O=C(NCc1ccc(S(=O)(=O)c2cccc(C(F)(F)F)c2)cc1)c1cc2cnccc2[nH]1 [N-[(4-{[3-(trifluoromethyl)benzene]sulfonyl}phenyl)methyl]-1H-pyrrolo[3,2-c]pyridine-2-carboxamide]			9	3
O=C(NCc1ccc(S(=O)(=O)c2cccc(OC(F)(F)F)c2F)cc1)c1cc2ccncc2s1	9.8	13.3		
O=C(NCc1ccc(S(=O)(=O)c2ccccc2)cc1)c1c[nH]c2ccncc12 [N-{[4-(benzenesulfonyl)phenyl]methyl}-1H-pyrrolo[3,2-c]pyridine-3-carboxamide]	1910	2060		
O=C(NCc1ccc(S(=O)(=O)c2ccc3nc(C(F)(F)F)cn3c2)cc1)c1cc2ccncc2s1 [N-({4-[2-(trifluoromethyl)imidazo[1,2-a]pyridine-6-sulfonyl]phenyl}methyl)thieno[2,3-c]pyridine-2-carboxamide]	3.1	3.9		
O=C(NCc1ccc(S(=O)(=O)c2cccc(Cl)c2)cc1)c1cc2ncccc2[nH]1		13	3.9	
CC(=O)c1ccccc1NS(=O)(=O)c1ccc(CNC(=O)c2cc3cnccc3[nH]2)cc1 [N-({4-[(2-acetylphenyl)sulfamoyl]phenyl}methyl)-1H-pyrrolo[3,2-c]pyridine-2-carboxamide]			5	5
CCCCOc1ccc(S(=O)(=O)c2ccc(CNC(=O)c3cc4cnccc4[nH]3)cc2)cc1 [N-({4-[(4-butoxybenzene)sulfonyl]phenyl}methyl)-1H-pyrrolo[3,2-c]pyridine-2-carboxamide]		17.1	8.4	
Cn1cc2cc(S(=O)(=O)c3ccc(CNC(=O)c4ccc5nccn5c4)cc3)ccc2n1 [N-{[4-(2-methyl-2H-indazole-5-sulfonyl)phenyl]methyl}imidazo[1,2-a]pyridine-6-carboxamide]	13.3	5.8		
Cc1cc(Cl)cc(S(=O)(=O)c2ccc(CNC(=O)c3cnc4nccn4c3)cc2)c1		2.3	4.8	
COc1cc(Cl)cc(S(=O)(=O)c2ccc(CNC(=O)c3ccc4nccn4c3)cc2)c1		1.5	9.2	
Cc1cc(C)cc(S(=O)(=O)c2ccc(CNC(=O)c3cc4ccncc4o3)cc2)c1		2.8	16.7	
CS(=O)(=O)Nc1ccccc1S(=O)(=O)c1ccc(CNC(=O)c2cc3cnccc3[nH]2)cc1 [N-({4-[(2-methanesulfonamidobenzene)sulfonyl]phenyl}methyl)-1H-pyrrolo[3,2-c]pyridine-2-carboxamide]			284	> 1000
O=C(NCc1ccc(S(=O)(=O)c2cncc(N3CCCC3)c2)cc1)c1ccc2ncsc2c1 [N-({4-[5-(pyrrolidin-1-yl)pyridine-3-sulfonyl]phenyl}methyl)-1,3-benzothiazole-6-carboxamide]	9.2	100 to 1000		
Cc1c(Cl)cccc1S(=O)(=O)c1ccc(CNC(=O)c2cnc3nccn3c2)cc1		26.5	4.3	
O=C(NCc1ccc(S(=O)(=O)c2cccc3c2oc2ccccc23)cc1)c1cnc2nccn2c1	1.7	2.9		
CC(=O)c1ccccc1S(=O)(=O)c1ccc(CNC(=O)c2cnc3[nH]ncc3c2)cc1 [N-({4-[(2-acetylbenzene)sulfonyl]phenyl}methyl)-1H-pyrazolo[3,4-b]pyridine-5-carboxamide]		11.4	3.6	
COc1cc(S(=O)(=O)c2ccc(CNC(=O)c3cc4cnccc4[nH]3)cc2)ccc1C		3	7.9	
O=C(NCc1ccc(S(=O)(=O)c2cnn(-c3cccc(Cl)c3)c2)cc1)c1cc2cnccc2[nH]1 [N-({4-[1-(3-chlorophenyl)-1H-pyrazole-4-sulfonyl]phenyl}methyl)-1H-pyrrolo[3,2-c]pyridine-2-carboxamide]	16.9	13.1		
